Measurements taken from patent US8846760B2, “Dihydronaphthalene and naphthalene derivatives as N-formyl peptide receptor like-1 (FPRL-1) receptor modulators” (Allergan, Inc., priority 2011, dated 2014).

Target: T1, FPRL-1 (Homo sapiens, UniProt P25090)
T1 construct: expressed in transfected cells
T1 sequence (P25090 1-351): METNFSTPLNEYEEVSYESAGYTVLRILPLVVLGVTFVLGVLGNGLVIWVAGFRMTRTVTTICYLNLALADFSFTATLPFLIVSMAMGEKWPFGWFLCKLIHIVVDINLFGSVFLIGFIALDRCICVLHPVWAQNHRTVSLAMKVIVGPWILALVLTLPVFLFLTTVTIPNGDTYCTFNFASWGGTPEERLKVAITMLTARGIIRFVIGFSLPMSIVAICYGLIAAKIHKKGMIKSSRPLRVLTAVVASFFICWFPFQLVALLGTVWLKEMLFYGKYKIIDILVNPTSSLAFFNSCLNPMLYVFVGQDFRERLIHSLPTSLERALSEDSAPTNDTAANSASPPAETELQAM
Experiment: Compound-induced calcium activity on FLIPR Tetra in CHO-Gα16 cells stably expressing FPRL1
Assay type: cell-based
Conditions: for Emax: efficacy, read-out: FPRL-1 Ga16-CHO (eff %); for EC50: tested 0.61 to 10,000 nM, read-out: FPRL-1 Ga16-CHO EC50
Procedure: CHO-Gα16 cells stably expressing FPRL1 were cultured in (F12, 10% FBS, 1% PSA, 400 μg/ml geneticin and 50 μg/ml hygromycin) and HEK-Gqi5 cells stable expressing FPR1 were cultured in (DMEM high glucose, 10% FBS, 1% PSA, 400 μg/ml geneticin and 50 μg/ml hygromycin). In general, the day before the experiment, 18,000 cells/well were plated in a 384-well clear bottom poly-d-lysine coated plate. The following day the screening compound-induced calcium activity was assayed on the FLIPR^Tetra. The drug plates were prepared in 384-well microplates using the EP3 and the MultiPROBE robotic liquid handling systems. Compounds were tested at concentrations ranging from 0.61 to 10,000 nM. Results are expressed as EC50 (nM) and efficacy values.

| Emax [%] | EC50 [nM] | Structure (SMILES) |
| --- | --- | --- |
| 80 | 756 | CC(C)c1cccc2c1CCC(C(=O)Nc1ccc(Br)cc1)=C2C(=O)O [Compound 1, 2-{[(4-Bromophenyl)amino]carbonyl}-5-isopropyl-3,4-dihydronaphthalene-1-carboxylic Acid] |
| 95 | 87 | CC1(C)CC(C(=O)Nc2ccc(Br)cc2)=C(C(=O)O)c2ccccc21 [Compound 3, 2-{[(4-Bromophenyl)amino]carbonyl}-4,4-dimethyl-3,4-dihydronaphthalene-1-carboxylic acid] |
| 95 | 3920 | Cc1cc(C)c2c(c1)C(C(=O)O)=C(C(=O)Nc1ccc(Br)cc1)CC2 [Compound 7, 2-{[(4-Bromophenyl)amino]carbonyl}-5,7-dimethyl-3,4-dihydronaphthalene-1-carboxylic acid] |
| 100 | 1300 | O=C(Nc1ccc(Br)cc1)c1ccc2ccccc2c1C(=O)O [Compound 11, 2-{[(4-Bromophenyl)amino]carbonyl}-1-naphthoic acid] |
| 100 | 566 | O=C(O)C1=C(C(=O)Nc2ccc(Br)cc2)CCc2c1cccc2-c1ccccc1 [Compound 5, 2-{[(4-Bromophenyl)amino]carbonyl}-5-phenyl-3,4-dihydronaphthalene-1-carboxylic acid] |

The next lines start with the compound.

| Structure (SMILES) | Emax [%] | EC50 [nM] |
| --- | --- | --- |
| O=C(O)c1cc2ccccc2cc1C(=O)Nc1ccc(Br)cc1 [Compound 9, 3-{[(4-Bromophenyl)amino]carbonyl}-2-naphthoic acid] | 92 | 5930 |
| CCc1cc(C(=O)Nc2ccc(Br)cc2)c(C(=O)O)c2ccccc12 [Compound 12, 2-{[(4-Bromophenyl)amino]carbonyl}-4-ethyl-1-naphthoic acid] | 95 | 165 |
| O=C(O)C1=C(C(=O)Nc2ccc(Br)cc2)CCc2ccc(Cl)cc21 [Compound 4, 2-{[(4-Bromophenyl)amino]carbonyl}-7-chloro-3,4-dihydronaphthalene-1-carboxylic acid] | 81 | 777 |
| O=C(O)C1=C(C(=O)Nc2ccc(Br)cc2)CCc2ccccc21 [Compound 6, 2-{[(4-Bromophenyl)amino]carbonyl}-3,4-dihydronaphthalene-1-carboxylic acid] | 90 | 383 |
| Cc1ccc(C)c2c1CCC(C(=O)Nc1ccc(Br)cc1)=C2C(=O)O [Compound 8, 2-{[(4-Bromophenyl)amino]carbonyl}-5,8-dimethyl-3,4-dihydronaphthalene-1-carboxylic acid] | 93 | 198 |
| CC1(C)CCC(C)(C)c2cc(C(=O)Nc3ccc(Br)cc3)c(C(=O)O)cc21 [Compound 10, 3-{[(4-Bromophenyl)amino]carbonyl}-5,5,8,8-tetramethyl-5,6,7,8-tetrahydronaphthalene-2-carboxylic acid] | 58 | 1560 |
| CC(C)(C)c1ccc2c(c1)C(C(=O)O)=C(C(=O)Nc1ccc(Br)cc1)CC2 [Compound 2, 2-{[(4-Bromophenyl)amino]carbonyl}-7-tert-butyl-3,4-dihydronaphthalene-1-carboxylic acid] | 86 | 1320 |
